Laboratory results from patent US6784185B2, “Pharmaceutically active compounds” (Pfizer Inc., priority 2001, dated 2004).

Target: T1, cGMP-specific PDE (PDE5) (Homo sapiens, UniProt O76074)
T1 construct: obtained from human corpus cavernosum tissue or human platelets; from tissue; host or cells: human corpus cavernosum tissue or human platelets
Experiment: In vitro PDE inhibitory activity, cGMP PDE5
Assay type: biochemical
Settings: enzyme from human corpus cavernosum tissue or human platelets; low substrate such that IC50≅Ki
Experimental: The compounds of the present invention are potent and selective cGMP PDE5 inhibitors. In vitro PDE inhibitory activities against cyclic guanosine 3′,5′-monophosphate (cGMP) and cyclic adenosine 3′,5′-monophosphate (cAMP) phosphodiesterases were determined by measurement of their IC50 values (the concentration of compound required for 50% inhibition of enzyme activity).
The required PDE enzymes were isolated from a variety of sources, including human corpus cavernosum, human platelets, human cardiac ventricle, human skeletal muscle and human and canine retina, essentially by the method of W. J. Thompson and M. M. Appleman (Biochem., 1971, 10, 311). In particular, the cGMP-specific PDE (PDE5) and the cGMP-inhibited cAMP PDE (PDE3) were obtained from human corpus cavernosum tissue or human platelets; the cGMP-stimulated PDE (PDE2) was obtained from human corpus cavernosum or human platelets; the calcium/calmodulin (Ca/CAM)-dependent PDE (PDE1) from human cardiac ventricle; the cAMP-specific PDE (PDE4) from recombinant clone or human skeletal muscle; and the photoreceptor PDE (PDE6) from canine or human retina. Phosphodiesterases 7-11 were generated from full length human recombinant clones transfected into SF9 cells.
Assays were performed either using a modification of the “batch” method of W. J. Thompson et al. (Biochem., 1979, 18, 5228) or using a scintillation proximity assay for the direct detection of AMP/GMP using a modification of the protocol described by Amersham plc under product code TRKQ7090/7100. In summary, the effect of PDE inhibitors was investigated by assaying a fixed amount of enzyme in the presence of varying inhibitor concentrations and low substrate, (cGMP or cAMP in a 3:1 ratio unlabelled to [^3H]-labeled at a conc ˜1/2 Km) such that IC50≅Ki. The final assay volume was made up to 102 μl with assay buffer [20 mM Tris-HCl pH 7.4, 5 mM MgCl2, 1 mg/ml bovine serum albumin]. Reactions were initiated with enzyme, incubated for 30-60 min at 30° C. to give <30% substrate turnover and terminated with 50 μl yttrium silicate SPA beads (containing 3 mM of the respective unlabelled cyclic nucleotide for PDEs 3, 9 and 11). Plates were re-sealed and shaken for 20 min, after which the beads were allowed to settle for 30 min in the dark and then counted on a TopCount plate reader (Packard, Meriden, Conn.). Radioactivity units were converted to % activity of an uninhibited control (100%), plotted against inhibitor concentration and inhibitor IC50 values obtained using the ‘Fit Curve’ Microsoft Excel extension or in-house equivalent.

Structure (SMILES)	IC50 [nM]
CCCOc1ccc(C(C)=O)cc1-c1nc2c(CC)n(CC(=O)OC(C)(C)C)nc2c(=O)[nH]1 [Example 6]	2.2
CCCOc1ccc(C(C)=O)cc1-c1nc2c(CC)n(CCCC(=O)O)nc2c(=O)[nH]1 [Example 12, 4-[5-(5-Acetyl-2-propoxyphenyl)-3-ethyl-7-oxo-6,7-dihydro-2H-pyrazolo[4,3-d]pyrimidin-2-yl]butanoic Acid]	1.8
CCCOc1ccc(C(C)=O)cc1-c1nc2c(CC)n(CC(=O)N(C)C)nc2c(=O)[nH]1 [Example 13, 2-[5-(5-Acetyl-2-propoxyphenyl)-3-ethyl-7-oxo-6,7-dihydro-2H-pyrazolo[4,3-d]pyrimidin-2-yl]-N,N-dimethylacetamide]	11.9

Further compounds by falling IC50, results first:

IC50 [nM]	Structure (SMILES)
23	CCCCOc1ccc(C(C)=O)cc1-c1nc2c(CC)n(C3CN(C(C)C)C3)nc2c(=O)[nH]1 [Example 3]
13.8	CCc1c2nc(-c3cc(C(C)=O)ccc3OCC(C)C)[nH]c(=O)c2nn1C1CN(C2CCC2)C1 [Example 2]
